Tests used:
[1] = biological target: human cathepsin L (Homo sapiens, UniProt P07711); assay: Cathepsin L Ki determination (fluorescent substrate H-D-Val-Leu-Lys-AMC); format: biochemical; settings: pH5.5
Protocol: The procedure above with the following amendments is used for the determination of Ki for cathepsin L.
The enzyme is commercially available human cathepsin L (for example Calbiochem). The substrate is H-D-Val-Leu-Lys-AMC available from Bachem. The assay buffer is 100 mM sodium acetate 1 mM EDTA, pH5.5) The DMSO stock (10 mM in 100%DMSO) is diluted to 10% in assay buffer. Enzyme is prepared at 5 nM concentration in assay buffer plus 1 mM dithiothreitol just before use. 2 ul of 10 mM inhibitor made up in 100% DMSO is dispensed into row A. 10 ul of 50 uM substrate (=1/200 dilution of 10 mM stock in DMSO, diluted in assay buffer)
Potential inhibitors are screened using the above assay with variable concentrations of test compound. Reactions were initiated by addition of enzyme to buffered solutions of substrate and inhibitor. Ki values were calculated according to equation 1 v0 = (VS)/(KM (1 + (I)/(Ki)) + S) [formula] where v0 is the velocity of the reaction, V is the maximal velocity, S is the concentration of substrate with Michaelis constant of KM, and / is the concentration of inhibitor.
Representative compounds of the invention were assayed for cathepsin K potency and selectivity in the assays above. Note that the cathepsin L and S data is in micromolar, whereas the compounds are so potent against cathepsin K that the results are presented in nanomolar.

[2] = biological target: T1, human cathepsin S (Homo sapiens, UniProt P25774); assay: Cathepsin S Ki determination (fluorescent substrate boc-Val-Leu-Lys-AMC); format: biochemical; settings: baculovirus-expressed human cathepsin S, pH 6.5
T1 construct: made in house
T1 sequence (P25774 115-331): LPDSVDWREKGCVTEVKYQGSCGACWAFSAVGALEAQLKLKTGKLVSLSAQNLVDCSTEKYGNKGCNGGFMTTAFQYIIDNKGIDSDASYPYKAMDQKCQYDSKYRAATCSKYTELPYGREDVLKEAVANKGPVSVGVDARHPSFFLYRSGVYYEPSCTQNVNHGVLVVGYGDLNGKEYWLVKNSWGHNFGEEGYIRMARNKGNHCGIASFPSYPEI
Protocol: The assay uses baculovirus-expressed human cathepsin S and the boc-Val-Leu-Lys-AMC fluorescent substrate available from Bachem in a 384 well plate format, in which 7 test compounds can be tested in parallel with a positive control comprising a known cathepsin S inhibitor comparator.
280 ul/well of 12.5% DMSO are added to rows B - H of two columns of a 96 deep well polypropylene plate. 70 ul/well of substrate is added to row A. 2 x 250 ul/well of assay buffer (100 mM Na phosphate, 100 mM NaCl, pH 6.5) is added to row A, mixed, and double diluted down the plate to row H.
100 ul/well of assay buffer is added to columns 2-5 and 7-12 of 4 rows of a 96 well V bottom polypropylene plate. 200 ul/well of assay buffer is added to columns 1 and 6.
2 ul of each 10 mM test compound is added to a separate well on row A, columns 1-10. Add 90 ul assay buffer containing 1 mM DTT and 2 nM cathepsin S to each well of rows B-H and 180 ul to row A. Mix row A using a multichannel pipette and double dilute to row G. Mix row H and read in the fluorescent spectrophotometer.
The second test compound is added to column 6 of the top row, the third to column 1 of the second row etc. Add 1 ul of comparator to column 6 of the bottom row. […]
Using the a distributor such as a Multidrop 384, add 30 ul/well to all wells of the assay plate and read in fluorescent spectrophotometer such as an Ascent. […]

[3] = Permeability, transport through Caco-2 cell monolayers; settings: human
[4] = biological target: T2, cathepsin K (Homo sapiens, UniProt P43235); assay: Determination of cathepsin K proteolytic catalytic activity (Ki, fluorogenic peptide substrate); format: biochemical; settings: human recombinant enzyme
T2 construct: made in house; host or cells: not fixed: E coli, Pichia or Baculovirus systems named as options
T2 sequence (P43235 115-329): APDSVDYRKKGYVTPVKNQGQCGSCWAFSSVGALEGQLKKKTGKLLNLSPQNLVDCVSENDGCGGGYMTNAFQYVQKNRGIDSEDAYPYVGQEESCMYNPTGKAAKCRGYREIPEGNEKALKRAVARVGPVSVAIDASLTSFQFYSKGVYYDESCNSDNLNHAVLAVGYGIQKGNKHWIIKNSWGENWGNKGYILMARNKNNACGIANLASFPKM
Protocol: Convenient assays for cathepsin K are carried out using human recombinant enzyme, such as that described in PDB.
The recombinant cathepsin K can be expressed in a variety of commercially available expression systems including E coli, Pichia and Baculovirus systems. The purified enzyme is activated by removal of the prosequence by conventional methods.
The enzyme concentration used was 5 nM. The stock substrate solution was prepared at 10 mM in DMSO. […] The total DMSO concentration in the assay was kept below 3%. All assays were conducted at ambient temperature. Product fluorescence (excitation at 390 nm, emission at 460 nm) was monitored with a Labsystems Fluoroskan Ascent fluorescent plate reader.
Potential inhibitors are screened using the above assay with variable concentrations of test compound. Reactions were initiated by addition of enzyme to buffered solutions of substrate and inhibitor.

[5] = reference compounds (markers) of the permeability assay; cited from earlier work

Sequence of human cathepsin L (P07711 114-333): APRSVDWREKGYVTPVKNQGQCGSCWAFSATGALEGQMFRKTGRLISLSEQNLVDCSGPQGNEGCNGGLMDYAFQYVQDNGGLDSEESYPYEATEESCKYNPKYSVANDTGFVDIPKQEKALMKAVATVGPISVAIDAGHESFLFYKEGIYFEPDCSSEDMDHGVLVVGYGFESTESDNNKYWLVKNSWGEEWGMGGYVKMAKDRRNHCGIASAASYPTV

CCC1OCC(=O)C1NC(=O)C1(NC(=O)c2ccc(-c3csc(N4CCN(C)CC4)n3)cc2)CCCCC1 (stereo not shown) [Example 2, N-[1-(2-Ethyl-4-oxo-tetrahydro-furan-3-ylcarbamoyl)-cyclohexyl]-4-[2-(4-methylpiperazin-1-yl)-thiazol-4-yl]-benzamide]
Ki [1]: 120 µM | Ki [2]: 770 µM | Papp at 120 min, 10 uM [3]: 36 ×10⁻⁶ cm/s

CCC1OCC(=O)C1NC(=O)C(CC(C)C)NC(=O)c1ccc(-c2csc(N3CCN(C)CC3)n2)cc1 (stereo not shown) [Example 3, N-[1-(2-Ethyl-4-oxo-tetrahydro-furan-3-ylcarbamoyl)-3-methyl-butyl]-4-[2-(4-methylpiperazin-1-yl)-thiazol-4-yl]-benzamide]
Ki [1]: 0.5 µM | Ki [2]: 1.8 µM | Ki [4]: 0.001 µM | Papp at 120 min, 10 uM [3]: 46 ×10⁻⁶ cm/s

OC[C@@H](O)[C@@H](O)[C@H](O)[C@H](O)CO [Mannitol]
% absorption in man [5]: 16%

CN(Cc1cnc2nc(N)nc(N)c2n1)c1ccc(C(=O)N[C@@H](CCC(=O)O)C(=O)O)cc1 [Methotrexate]
% absorption in man [5]: 20%

CC(C)C[C@H](NC(=O)c1ccc(N2CCN(C)CC2)cc1)C(=O)N[C@H]1C(=O)CO[C@@H]1C [Prior art, reference compound]
Papp at 10 µM [3]: 1 ×10⁻⁶ cm/s
